Experimental data: PubChem BioAssay (NCI)
“And” between values parts separate entries of the source, which are not always exact repeats. Equal entries are not always repeated.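 Cells were grown in 96-well plates and exposed to each compound for 48 hours at five concentrations; endpoints were interpolated linearly between bracketing concentrations, or set to the highest concentration if not reached. GI50 = concentration required for 50% inhibition of growth. TGI: concentration producing complete growth inhibition.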

Columns and labels:
Experiment in all cases: growth of human tumour cells (NCI), 48 h
[1] = test system: MALME-3M melanoma
[2] = test system: U251 CNS
[3] = test system: HCC-2998 colon
[4] = test system: UACC-257 melanoma
[5] = test system: LOX IMVI melanoma
[6] = test system: SK-MEL-2 melanoma
[7] = test system: IGROV1 ovarian
[8] = test system: CCRF-CEM leukemia
[9] = test system: HOP-62 NSCLC
[10] = test system: NCI-H522 lung

| Structure (SMILES) | TGI [1] | TGI [2] [µM] | TGI [3] [µM] | TGI [4] | TGI [5] [µM] | TGI [6] | TGI [7] | TGI [8] [µM] | TGI [9] | TGI [10] [µM] | GI50 [10] | GI50 [3] [µM] | GI50 [6] | GI50 [7] | GI50 [9] [µM] | GI50 [4] [µM] | GI50 [5] [µM] | GI50 [8] [µM] |
| --- | --- | --- | --- | --- | --- | --- | --- | --- | --- | --- | --- | --- | --- | --- | --- | --- | --- | --- |
| Cc1cc(C)n2c(nc3ccccc32)c1C#N | > 100 µM | > 100 | > 100 | > 100 µM | > 100 | > 100 µM | > 100 µM | > 100 |  |  |  |  |  |  |  |  |  |  |
| CCOC(=O)c1cc2c3c(cc(OC)c2[nH]1)N(C(=O)OCC)CC3 | > 100 µM | > 100 | > 100 | > 100 µM | > 100 | > 100 µM | > 100 µM | > 100 | > 100 µM |  |  |  |  |  |  |  |  |  |
| COc1cccc(CCCNC(=O)Cc2ccccc2CO)c1 | > 100 µM | > 100 | > 100 | > 100 µM | > 100 | > 100 µM | > 100 µM | > 100 | > 100 µM |  |  |  |  |  |  |  |  |  |
| CC(C)(CN1CCCCC1)C(=O)CC(SCCS(=O)(=O)O)c1ccc(Cl)cc1 (stereo not drawn) | 24.3 µM | 22.3 | 26 | 20.5 µM |  | 18.8 µM | 20.4 µM | 6.04 | 25 µM | 6.29 |  |  |  |  |  |  |  |  |
| Clc1cc2ncn(C3CCCCO3)c2cc1Cl (stereo not drawn) | > 100 µM | > 100 | > 100 |  | > 100 | > 100 µM | > 100 µM | > 100 | > 100 µM | 59.2 |  |  |  |  |  |  |  |  |
| Cc1nc(Cc2n[nH]c(C)n2)n[nH]1 |  | > 100 | > 100 | > 100 µM | > 100 | > 100 µM | > 100 µM | > 100 | > 100 µM | > 100 |  |  |  |  |  |  |  |  |
| CCOC(=O)c1c(-c2ccccc2)c(C)cn1C |  | > 10 |  | > 10 µM |  | > 10 µM | > 10 µM | > 10 |  | > 10 |  |  |  |  |  |  |  |  |
| COc1ccc(/C=N/NC(=S)Nc2cc(C)ccc2OC)cc1 | 65.2 µM |  |  |  | > 100 | 43.8 µM | > 100 µM | > 100 | > 100 µM | 55.9 |  |  |  |  |  |  |  |  |
| COc1cccc(N=NN2CCCC2)c1 |  | > 100 |  | > 100 µM | > 100 | > 100 µM | > 100 µM | > 100 | > 100 µM | > 100 |  |  |  |  |  |  |  |  |
| COc1ccc(C23OCC(Cc4cc(OC)c(OC)cc42)C3CO)cc1OC (stereo not drawn) | > 100 µM | > 100 | > 100 |  | > 100 | > 100 µM |  |  | > 100 µM | > 100 |  |  |  |  |  |  |  |  |
| O=C(c1ccccc1)c1cc(Cl)ccc1NCn1nnc2ccccc21 |  | > 100 | > 100 | > 100 µM | > 100 | > 100 µM | > 100 µM | > 100 | > 100 µM | > 100 |  |  |  |  |  |  |  |  |
| CCCCCCCCCCCCC1N=C(N)NC2(CCCO2)C1C(=O)OC (stereo not drawn) | 38 µM | 3.2 | > 39.5 | 19 µM |  | 20.9 µM | 6.72 µM | 5.83 | 23.8 µM | 9.7 |  |  |  |  |  |  |  |  |
| Cn1c(=O)c2c(nc(N/N=C3/SCC(=O)N3Cc3ccccc3)n2C)n(C)c1=O | > 100 µM | > 100 | > 100 | > 100 µM |  | > 100 µM | > 100 µM | > 100 | > 100 µM | > 100 |  |  |  |  |  |  |  |  |
| C/C(Nc1ccc(Cl)cc1)=C1/CCOC1=O | > 100 µM | > 100 | > 100 | > 100 µM |  | > 100 µM | > 100 µM | > 100 | > 100 µM | > 100 |  |  |  |  |  |  |  |  |
| CC[C@@]1(O)C(=O)OCc2c1cc1n(c2=O)Cc2c-1nc1ccccc1c2C=Nc1ccccc1N[C@@H]1c2cc3c(cc2[C@@H](c2cc(OC)c(O)c(OC)c2)[C@H]2C(=O)OC[C@@H]21)OCO3 | 25.6 µM and 3.78 µM | 34.6 | 24.6 | 66.7 µM and 11.3 µM |  | 36.3 µM and 3.86 µM | 12.4 µM and 7.63 µM | > 100 | 0.466 µM and 0.154 µM |  | 0.072 µM and 0.192 µM | 10.3 | 7.14 µM and 1.62 µM | 0.544 µM and 0.22 µM |  |  |  |  |
| O=c1c2cc(I)ccc2nc(-c2cccs2)n1O |  | > 100 | > 100 | > 100 µM | 80.4 | > 100 µM | > 100 µM | 95.2 | > 100 µM | > 100 |  |  |  |  |  |  |  |  |
| COc1ccc(/C=N/Nc2nnc3c(n2)c2ccccc2c2nn(-c4ccccc4Cl)nc23)cc1 | > 100 µM | > 100 |  | > 100 µM | > 100 | > 100 µM | > 100 µM | > 100 | > 100 µM | > 100 |  |  |  |  |  |  |  |  |
| CC[C@@]12CCC(=S)N(CCSc3ccccc3)[C@@H]1c1c(n(S(=O)(=O)c3ccc(OC)cc3)c3ccccc13)CC2 | > 100 µM | > 100 |  | > 100 µM | > 100 | > 100 µM | > 100 µM | > 100 | > 100 µM | > 100 |  |  |  |  |  |  |  |  |
| CC(=O)[C@]1(O)Cc2c(O)c3c(c(O)c2[C@@H](OC2CC(N)C(O)C(C)O2)C1)C(=O)c1c(OCc2ccccc2)cccc1C3=O (stereo partly drawn) | 20.1 µM | 3.97 | 2.63 | 11.1 µM |  | 58.4 µM | 33.8 µM | 1.45 | 16 µM | 5.19 |  |  |  |  |  |  |  |  |
| N#Cc1c(N)nc(Sc2ccccc2N)c(C#N)c1-c1ccccc1 | 46.2 µM | 60.2 | 38.3 | > 100 µM | 41.3 | 32.5 µM | > 100 µM |  | > 100 µM |  |  |  |  |  |  |  |  |  |
| CCN(CC)CCNc1ccc([N+](=O)[O-])c2sc3cc(Cl)ccc3c(=O)c12 |  |  | > 100 | 4.96 µM | > 100 | > 100 µM | 5.23 µM | > 100 | > 100 µM | > 100 | 9.01 µM | 11.1 | 21.8 µM | 2.05 µM | 2.7 | 2.08 | 2.8 | 3.17 |
| COc1ccc2c(c1)CC[C@@H]1C2CC[C@]2(C)C(=C=CP(=O)(O)O)CCC12 (stereo partly drawn) | > 100 µM | > 100 | > 100 | > 100 µM | > 100 | > 100 µM | > 100 µM |  | > 100 µM | > 100 |  |  |  |  |  |  |  |  |
